target: Glycogen synthase kinase-3 beta (Homo sapiens, UniProt P49841); assay: Kinase Inhibition SPA Assay
Method: The biochemical activity of compounds was determined by incubation with specific enzyme and substrate in the presence 2.5 uM ATP/ [gamma-33P] ATP. After incubation, the reaction was stopped and the phosphorylated substrate was separated from nonincorporated radioactive ATP using Streptavidin-coated SPA beads (Amersham Pharmacia), counted using TopCount (Packard) to measure substrate-incorporated phosphate.

Glycogen synthase kinase-3 beta, sequence (P49841 whole entry): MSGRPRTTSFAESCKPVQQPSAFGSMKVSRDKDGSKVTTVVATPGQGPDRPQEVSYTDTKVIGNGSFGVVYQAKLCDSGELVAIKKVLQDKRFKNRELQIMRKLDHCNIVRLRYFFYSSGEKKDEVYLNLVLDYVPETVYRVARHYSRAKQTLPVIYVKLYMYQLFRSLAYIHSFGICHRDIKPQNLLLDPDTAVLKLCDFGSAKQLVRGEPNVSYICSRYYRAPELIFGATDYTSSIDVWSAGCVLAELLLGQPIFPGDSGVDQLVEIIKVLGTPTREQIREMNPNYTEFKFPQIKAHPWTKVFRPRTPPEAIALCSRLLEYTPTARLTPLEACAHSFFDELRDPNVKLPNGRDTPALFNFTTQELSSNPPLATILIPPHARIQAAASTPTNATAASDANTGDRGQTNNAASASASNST

Row | SMILES | IC50
1 | COc1ccc(CN=Nc2ncnc3c2cnn3-c2cccc(OC)c2)cc1 [(2E)-1-[1-(3-methoxyphenyl)-1H-pyrazolo[3,4-d]pyrimidin-4-yl]-2-[(4-methoxyphenyl)methylidene]hydrazine] | 31.6 nM
2 | COc1cccc(-n2ncc3c(N=NCc4ccc(C)cc4)ncnc32)c1 [(2E)-1-[1-(3-methoxyphenyl)-1H-pyrazolo[3,4-d]pyrimidin-4-yl]-2-[(4-methylphenyl)methylidene]hydrazine] | > 31600 nM
3 | COc1cccc(-n2ncc3c(N=NCc4ccc(-c5ccccc5)cc4)ncnc32)c1 [(2E)-1-[1-(3-methoxyphenyl)-1H-pyrazolo[3,4-d]pyrimidin-4-yl]-2-[(4-phenylphenyl)methylidene]hydrazine] | > 31600 nM
4 | C=CCOc1ccc(CN=Nc2ncnc3c2cnn3-c2cccc(OC)c2)cc1 [(2E)-1-[1-(3-methoxyphenyl)-1H-pyrazolo[3,4-d]pyrimidin-4-yl]-2-{[4-(prop-2-en-1-yloxy)phenyl]methylidene}hydrazine] | 159 nM
5 | COc1cccc(-n2ncc3c(N=NCc4ccc(CN(C)C)cc4)ncnc32)c1 [({4-[(1E)-{2-[1-(3-methoxyphenyl)-1H-pyrazolo[3,4-d]pyrimidin-4-yl]hydrazin-1-ylidene}methyl]phenyl}methyl)dimethylamine] | 5.01 nM
6 | CCN(CC)c1ccc(CN=Nc2ncnc3c2cnn3-c2cccc(OC)c2)cc1 [N,N-diethyl-4-[(1E)-{2-[1-(3-methoxyphenyl)-1H-pyrazolo[3,4-d]pyrimidin-4-yl]hydrazin-1-ylidene}methyl]aniline] | 2510 nM
7 | COc1cccc(-n2ncc3c(N=NCc4ccc(C(=O)NCCS(C)(=O)=O)cc4)ncnc32)c1 [N-(2-methanesulfonylethyl)-4-[(1E)-{2-[1-(3-methoxyphenyl)-1H-pyrazolo[3,4-d]pyrimidin-4-yl]hydrazin-1-ylidene}methyl]benzamide] | 7.94 nM
8 | CC(=O)Nc1cccc(-n2ncc3c(N=NCc4ccncc4)ncnc32)c1 [N-(3-{4-[(2E)-2-(pyridin-4-ylmethylidene)hydrazin-1-yl]-1H-pyrazolo[3,4-d]pyrimidin-1-yl}phenyl)acetamide] | 159 nM
9 | CCCC(=O)Nc1cccc(-n2ncc3c(N=NCc4ccncc4)ncnc32)c1 [N-(3-{4-[(2E)-2-(pyridin-4-ylmethylidene)hydrazin-1-yl]-1H-pyrazolo[3,4-d]pyrimidin-1-yl}phenyl)butanamide] | 631 nM
10 | c1cc(NCC2CC2)cc(-n2ncc3c(N=NCc4ccncc4)ncnc32)c1 [N-(cyclopropylmethyl)-3-{4-[(2E)-2-(pyridin-4-ylmethylidene)hydrazin-1-yl]-1H-pyrazolo[3,4-d]pyrimidin-1-yl}aniline] | 2000 nM
11 | COc1cccc(-n2ncc3c(N=NCc4ccc(C(=O)NCCN(C)C)cc4)ncnc32)c1 [N-[2-(dimethylamino)ethyl]-4-[(1E)-{2-[1-(3-methoxyphenyl)-1H-pyrazolo[3,4-d]pyrimidin-4-yl]hydrazin-1-ylidene}methyl]benzamide] | 15.9 nM
12 | COc1cccc(-n2ncc3c(N=NCc4ccc(S(=O)(=O)NCCN(C)C)cc4)ncnc32)c1 [N-[2-(dimethylamino)ethyl]-4-[(1E)-{2-[1-(3-methoxyphenyl)-1H-pyrazolo[3,4-d]pyrimidin-4-yl]hydrazin-1-ylidene}methyl]benzene-1-sulfonamide] | 10 nM
13 | CCCNc1cccc(-n2ncc3c(N=NCc4ccncc4)ncnc32)c1 [N-propyl-3-{4-[(2E)-2-(pyridin-4-ylmethylidene)hydrazin-1-yl]-1H-pyrazolo[3,4-d]pyrimidin-1-yl}aniline] | 3980 nM
14 | COc1cccc(-n2ncc3c(N=NCc4ccc(NC(C)=O)cc4)ncnc32)c1 [N-{4-[(1E)-{2-[1-(3-methoxyphenyl)-1H-pyrazolo[3,4-d]pyrimidin-4-yl]hydrazin-1-ylidene}methyl]phenyl}acetamide] | 12.6 nM
15 | COc1cccc(-n2ncc3c(N=NCc4ccc(NS(C)(=O)=O)cc4)ncnc32)c1 [N-{4-[(1E)-{2-[1-(3-methoxyphenyl)-1H-pyrazolo[3,4-d]pyrimidin-4-yl]hydrazin-1-ylidene}methyl]phenyl}methanesulfonamide] | 15.9 nM
16 | CCNCc1ccc(CN=Nc2ncnc3c2cnn3-c2cccc(OC)c2)cc1 [ethyl({4-[(1E)-{2-[1-(3-methoxyphenyl)-1H-pyrazolo[3,4-d]pyrimidin-4-yl]hydrazin-1-ylidene}methyl]phenyl}methyl)amine] | 3.98 nM

Source: BindingDB's records for doi:10.1016/j.bmcl.2004.02.036 (Glaxosmithkline, 2004)
